Laboratory results taken from patent publication US20260234157A1, “COMPOUND AND METHOD FOR TARGETED DEGRADATION OF ANDROGEN RECEPTOR” (Gan & Lee Pharmaceuticals Co., Ltd., priority 2023, published 2026).
Changes are numbered by the printed parent chain. Where two headings read alike, the source gives them in different places.

Experiments:
Type in all cases: cell-based
[1] = tested on: LNCaP FGC cells; test: Inhibition of proliferation of LNCaP cells (WST-8)
Procedure: The cells were cultured in a cell culture incubator with 5% CO2 at 37° C. overnight. […] On the sixth day, 96 well plates were taken out, and 20 μL of WST-8 (Beytime, C0040) reagent was added to each well.

[2] = biological target: T1, AR protein (Homo sapiens, UniProt P10275, T878A); test: Degradation of AR protein in LNCaP cells (Western blot); conditions: for inhibition at 0.01 µM: read-out: Degradation rates of the AR protein in LNCaP cells, 10 nM (%); for inhibition at 0.1 µM: read-out: Degradation rates of the AR protein in LNCaP cells, 100 nM (%)
T1 construct: degradation activity of the compounds disclosed in the present disclosure on AR protein in LNCaP cells; host or cells: LNCaP FGC
T1 sequence (P10275 1-920 T878A): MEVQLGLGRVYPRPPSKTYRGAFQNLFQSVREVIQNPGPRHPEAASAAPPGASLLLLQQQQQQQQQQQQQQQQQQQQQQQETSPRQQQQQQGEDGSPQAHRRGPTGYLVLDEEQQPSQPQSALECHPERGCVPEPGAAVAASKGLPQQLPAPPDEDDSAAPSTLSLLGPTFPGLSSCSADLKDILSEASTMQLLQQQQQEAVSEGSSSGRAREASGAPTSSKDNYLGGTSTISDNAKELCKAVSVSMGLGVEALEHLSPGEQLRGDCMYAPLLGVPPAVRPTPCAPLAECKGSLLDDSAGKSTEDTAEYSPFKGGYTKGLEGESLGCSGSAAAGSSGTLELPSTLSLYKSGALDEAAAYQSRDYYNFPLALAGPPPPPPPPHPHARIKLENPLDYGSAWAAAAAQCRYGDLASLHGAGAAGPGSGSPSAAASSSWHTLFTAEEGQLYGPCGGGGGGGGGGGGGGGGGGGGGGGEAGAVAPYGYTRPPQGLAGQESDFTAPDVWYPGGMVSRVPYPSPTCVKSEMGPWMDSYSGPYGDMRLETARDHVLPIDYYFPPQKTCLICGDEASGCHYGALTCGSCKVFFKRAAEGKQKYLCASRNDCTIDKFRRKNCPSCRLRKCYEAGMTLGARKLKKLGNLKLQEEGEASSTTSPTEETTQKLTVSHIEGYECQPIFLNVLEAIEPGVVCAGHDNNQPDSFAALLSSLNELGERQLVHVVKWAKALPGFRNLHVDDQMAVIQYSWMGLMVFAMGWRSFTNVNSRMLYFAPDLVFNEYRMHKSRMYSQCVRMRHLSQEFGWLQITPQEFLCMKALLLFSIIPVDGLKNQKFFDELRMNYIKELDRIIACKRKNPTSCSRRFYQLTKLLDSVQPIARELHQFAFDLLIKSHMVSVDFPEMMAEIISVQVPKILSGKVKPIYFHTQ
Procedure: The degradation activity of the compounds disclosed in the present disclosure on AR protein in LNCaP cells (cell source: ATCC)
(§1) Corresponding solvent controls were also set and cultured for 8 hours. After 8 hours of cultivation, the culture medium was removed and the cells were washed with PBS. RIPA lysis buffer containing 1% Protease Inhibitor Cocktail was added, and the total protein extract was obtained by lysis and centrifugation. The protein concentration in the extract was detected by BCA method. Protein electrophoresis was performed using SDS-PAGE, followed by transfer of the protein onto a PVDF (Millipore Sigma catalog No. PSRP010R5) membrane at 100V constant voltage for 60 minutes. The PVDF membrane was then placed in a 1×TBST solution with 5% milk and blocked at room temperature for 1 hour. […] The primary antibody solution was discarded and the PVDF membrane was washed three times with 1×TBST for 5 minutes/time. […] The secondary antibody solution was discarded and the PVDF membrane was washed three times with 1×TBST for 5 minutes/time. Western blot imaging was performed by using a dual color infrared laser imaging system (Licor catalog No. Odyssey CLX). Bands were analyzed in grayscale using Image Studio software. For each sample, GAPDH protein bands were detected as internal reference. The degradation rates of the AR protein for the compounds and the positive control sample were calculated based on grayscale of the protein bands.

[3] = biological target: T2, AR protein (Homo sapiens, UniProt P10275); test: Degradation of AR protein in VCaP cells (Western blot); conditions: 8 hours; for inhibition at 0.01 µM: compound at 10 nM, read-out: Degradation rate of the AR protein in VCaP cells, 10 nM (%); for inhibition at 0.1 µM: compound at 100 nM, read-out: Degradation rate of the AR protein in VCaP cells, 100 nM (%)
T2 construct: degradation activity of the compounds disclosed in the present disclosure on AR protein in VCaP cells; host or cells: VCaP
T2 sequence (P10275 1-920): T1 sequence (P10275 1-920 T878A) with A878T
Procedure: The degradation activity of the compounds disclosed in the present disclosure on AR protein in VCaP cells (cell source: ATCC)
as §1

[4] = Homo sapiens, LNCaP, 96 h, LNCaP FGC cells, 96 hours, WST-8 absorbance at 450 nm, read-out: IC50 for inhibiting the proliferation of LNCaP cells
[5] = Homo sapiens, LNCaP, 96 h, read-out: IC50 for inhibiting the proliferation of LNCaP cells, LNCaP FGC cells, 96 hours, WST-8 absorbance at 450 nm
[6] = LNCaP FGC cells, 96 hours, WST-8 absorbance at 450 nm, read-out: IC50 for inhibiting the proliferation of LNCaP cells
[7] = LNCaP cells, compound 10 nM, 8 hours, Western blot grayscale, GAPDH internal reference
[8] = LNCaP cells, compound 100 nM, 8 hours, Western blot grayscale, GAPDH internal reference

SMILES: CC1(C)C(=O)N(c2ccc(C#N)c(C(F)(F)F)c2)C(=S)N1c1ccc(C(=O)N2CC(CN3CCC4(CC3)COc3cc5c(cc3C4)C(=O)N(C3CCC(=O)NC3=O)C5=O)C2)c(F)c1 (stereo not shown) [Compound 128]
- IC50 [1, 4]: 4.16 µM

SMILES: CC1(C)C(=O)N(c2ccc(C#N)c(C(F)(F)F)c2)C(=S)N1c1ccc(C(=O)N2CCC(CN3CCC4(CC3)COc3cc5c(cc3O4)CN(C3CCC(=O)NC3=O)C5=O)CC2)c(F)c1 (stereo not shown) [Compound 111]
- IC50 [1, 5]: 5.72 µM

SMILES: CC1(C)C(=O)N(c2ccc(C#N)c(C(F)(F)F)c2)C(=S)N1c1ccc(C(=O)N2CC[C@@H](CN3CCC4(CC3)COc3cc5c(cc3C4)C(=O)N(C3CCC(=O)NC3=O)C5=O)C2)c(F)c1 (stereo partly shown) [Compound 126]
- IC50 ([1]; read-out: IC50 for inhibiting the proliferation of LNCaP cells, LNCaP FGC cells, 96 hours, WST-8 absorbance at 450 nm): 4.06 µM

SMILES: CC1(CN2CC3(CCc4cc5c(cc4O3)CN(C3CCC(=O)NC3=O)C5=O)C2)CCN(c2ccc(C(=O)N[C@H]3CC[C@H](Oc4ccc(C#N)c(Cl)c4)CC3)nn2)CC1 (stereo partly shown) [Compound 12]
- IC50 [1, 6]: 0.73 µM

SMILES: COC1(CN2CCC3(CCc4ccc5c(c4O3)CN(C3CCC(=O)NC3=O)C5=O)CC2)CCN(c2ccc(C(=O)N[C@H]3CC[C@H](Oc4ccc(C#N)c(Cl)c4)CC3)nn2)CC1 (stereo partly shown) [Compound 133]
- IC50 [1, 6]: 23.7 µM

SMILES: CC1(C)C(=O)N(c2ccc(C#N)c(C(F)(F)F)c2)C(=S)N1c1ccc(C(=O)N2CC3(CC(N4CCC5(CC4)COc4cc6c(cc4C5)C(=O)N(C4CCC(=O)NC4=O)C6=O)C3)C2)c(F)c1 (stereo not shown) [Compound 115]
- IC50 [1, 5]: 10.8 µM

SMILES: CC1(CN2CCC3(CCc4ccc5c(c4O3)CN(C3CCC(=O)NC3=O)C5=O)CC2)CCN(c2ccc(C(=O)N[C@H]3CC[C@H](Oc4ccc(C#N)c(Cl)c4)CC3)nn2)CC1 (stereo partly shown) [Compound 151]
- IC50 [1, 4]: 72.7 µM

SMILES: CC1(C)C(=O)N(c2ccc(C#N)c(C(F)(F)F)c2)C(=S)N1c1ccc(C(=O)N2CC[C@@H](CN3CCC4(CCc5cc6c(cc5O4)C(=O)N(C4CCC(=O)NC4=O)C6=O)CC3)C2)c(F)c1 (stereo partly shown) [Compound 127]
- IC50 [1, 4]: 6.28 µM

SMILES: CC1(CN2CCC3(CC2)COc2c(ccc4c2C(=O)N(C2CCC(=O)NC2=O)C4)C3)CCN(c2ccc(C(=O)NC3CCC(Oc4ccc(C#N)c(Cl)c4)CC3)nn2)CC1 (stereo not shown) [Compound 187]
- IC50 [1, 4]: 0.39 µM

SMILES: CC1(C)C(=O)N(c2ccc(C#N)c(C(F)(F)F)c2)C(=S)N1c1ccc(C(=O)N2CCC3(CC2)CC(N2CCC4(CC2)COc2cc5c(cc24)C(=O)N(C2CCC(=O)NC2=O)C5=O)C3)c(F)c1 (stereo not shown) [Compound 122]
- IC50 [1, 5]: 13.7 µM

SMILES: N#Cc1ccc(O[C@H]2CC[C@H](NC(=O)c3ccc(N4CC(N5CCC6(CCc7cc8c(cc7O6)CN(C6CCC(=O)NC6=O)C8=O)CC5)C4)nn3)CC2)cc1Cl (stereo partly shown) [Compound 42]
- inhibition at 0.01 µM ([2]; LNCaP, 8 h): 29%
- inhibition at 0.1 µM ([2]; LNCaP, 8 h): 49%
- inhibition at 0.01 µM [3]: 45%
- inhibition at 0.1 µM [3]: 33%

SMILES: N#Cc1ccc(O[C@H]2CC[C@H](NC(=O)c3ccc(N4CCC(CN5CC6(CCc7cc8c(cc7O6)C(=O)N(C6CCC(=O)NC6=O)C8=O)C5)CC4)nn3)CC2)cc1Cl (stereo partly shown) [Compound 1]
- inhibition at 0.01 µM [2, 7]: 44%
- inhibition at 0.1 µM [2, 8]: 82%
- inhibition at 0.01 µM [3]: 65%
- inhibition at 0.1 µM [3]: 79%

SMILES: CC1(C)C(=O)N(c2ccc(C#N)c(C(F)(F)F)c2)C(=S)N1c1ccc(C(=O)N2CCC(CN3CC4(CCc5cc6c(cc5O4)C(=O)N(C4CCC(=O)NC4=O)C6=O)C3)CC2)c(F)c1 (stereo not shown) [Compound 119]
- IC50 [1, 5]: 4.11 µM

SMILES: CC1(C)C(=O)N(c2ccc(C#N)c(C(F)(F)F)c2)C(=S)N1c1ccc(C(=O)N2CC3(CCC(N4CCC5(CCc6cc7c(cc6O5)C(=O)N(C5CCC(=O)NC5=O)C7=O)CC4)CC3)C2)c(F)c1 (stereo not shown) [Compound 117]
- IC50 [1, 5]: 2.57 µM

SMILES: N#Cc1ccc(O[C@H]2CC[C@H](NC(=O)c3ccc(N4CCC(N5CCC6(CC5)COc5c6ccc6c5CN(C5CCC(=O)NC5=O)C6=O)CC4)nn3)CC2)cc1Cl (stereo partly shown) [Compound 169]
- inhibition at 0.01 µM ([2]; LNCaP, 8 h): 75%
- inhibition at 0.1 µM ([2]; LNCaP, 8 h): 53%
- inhibition at 0.01 µM [3]: 79%
- inhibition at 0.1 µM [3]: 82%

SMILES: CCOC1(CN2CCC3(CC2)COc2c3ccc3c2CN(C2CCC(=O)NC2=O)C3=O)CCN(c2ccc(C(=O)N[C@H]3CC[C@H](Oc4ccc(C#N)c(Cl)c4)CC3)nn2)CC1 (stereo partly shown) [Compound 155]
- inhibition at 0.01 µM [2, 7]: 29%
- inhibition at 0.1 µM [2, 8]: 1%
- inhibition at 0.01 µM [3]: 58%
- inhibition at 0.1 µM [3]: 80%
